{
  "source": "patent US20060058312A1",
  "about": "“Stabilized aqueous preparation for injection” (priority 2004, published 2006)",
  "type_in_all_cases": "physicochemical",
  "key": {"[1]": {"assay": "Stability test at 60° C., effect of pH value with addition of ascorbic acid (Example 2), HPLC content", "experimental": "For the aqueous preparations obtained in (1) to (3) above, tests evaluating stability at 60° C./3 weeks were performed. The calcium levofolinate content remaining in the aqueous solution was measured using high performance liquid chromatography under the following conditions (the same were employed in the following experiments) 2 ml each of the test preparations were weighed, and 10 ml of the internal standard solution described below (the same was employed in the following experiments) were added thereto. Subsequently, water was added to adjust the total volume of the solution to 50 ml, thereby to prepare a test solution. Meanwhile, 62.5 mg of calcium levofolinate were dissolved in water so as to prepare a 25 ml solution. Then, to 10 ml of the resultant solution were added 10 ml of the internal standard solution, and the total volume of the solution was adjusted to 50 ml by adding water, thereby to prepare a standard solution. For 20 μl of the standard solution and the test solution, the content of calcium levofolinate was measured by the liquid chromatography method under the following conditions.\n1) Measurement Conditions • Detector: Ultraviolet absorptiometer (Measurement wavelength: 254 nm) • Column: A stainless tube having an internal diameter of 4.0 mm and a length of 15 cm was filled with 5 μm of octadecylsilylated silica gel for liquid chromatography. • Column temperature: A constant temperature near 45° C. • Mobile phase: The pH value of a mixed test solution containing 0.008 mol/L of disodium hydrogen phosphate solution/methanol/40% aqueous tetrabutylammonium hydroxide solution (385:110:1.3 (volume ratio)) was adjusted to 7.5 by adding phosphoric acid. • Flow rate: The flow rate was regulated so that the retention time of calcium levofolinate became about 10 minutes. • Internal standard solution: A solution prepared by adding water to 0.04 g of methyl parahydroxybenzoate so that the whole amount of solution is 100 ml.\nAbout 80 ml of water for injection were added to a beaker (volume: 200 ml). Then 0.56 g of sodium chloride, 0.3 g of tromethamine, and 0.5 g of ascorbic acid were added to it with bubbling of nitrogen gas, and the components were dissolved with stirring. Subsequently, to the resultant solution were added 1.375 g of calcium levofolinate (1.1 g, in terms of 5-formyl-(6S)-tetrahydrofolic acid), and the components were dissolved with stirring under heating to 45 to 50° C. Thereafter, the pH value of the solution was adjusted to 5.0 by adding 5% hydrochloric acid solution dropwise. A similar procedure to the above, except using 1% aqueous sodium hydroxide solution in place of 5% hydrochloric acid solution, was performed to produce solutions, each having a regulated pH value of 6.0, 7.0, 8.0, or 9.0. Water for injection was further added to each solution to adjust the total volume of the solution to 100 ml. Subsequently, the bubbling of nitrogen gas was stopped, and each solution was filtered with a filtration filter, thereby to yield a solution for injection. Subsequently, each of five 5 ml-glass ampules the inside space of which had been substituted by nitrogen gas, was filled with 5 ml of the resultant solution for injection, and was sealed by heating.\nFor each aqueous preparation obtained as above, a stability test at 60° C. was performed by measuring the remaining calcium levofolinate content by the high performance liquid chromatography method."}, "[2]": {"assay": "Content during storage of the preparation of the present invention", "conditions": "storage at 40° C./4 months (equivalent to 25° C./2 years)", "source_text": "In the preparation of the present invention, the pH value of the aqueous preparation is most desirably 6 to 7, the antioxidant is a combination of ascorbic acid with sodium pyrosulfite, and the concentration of the antioxidant is 0.1 to 0.3 w/v %. However, in the case where the concentration of sodium pyrosulfite is not less than 0.2 w/v %, precipitants form in the aqueous preparation. The preparation of the present invention is desirably included in an inner container, e.g., a syringe in a double package form which comprises an inner container and an outer bag, where a deoxidant (oxygen absorber) is placed between the inner container and the outer bag. The preparation of the present invention can be used as a pharmaceutical. The content of calcium salt of 5-formyl-(6S)-tetrahydrofolic acid (i.e. calcium levofolinate) is 90% or more during storage at 40° C./4 months (this condition is equivalent to 25° C./2 years)"}, "[3]": {"assay": "Transmittance and coloring of the aqueous solution during storage", "conditions": "aqueous solution", "source_text": "The suppressing effect can be attained by the action of ascorbic acid which has been stabilized by sodium pyrosulfite."}},
  "data": [
    {"compound": "Nc1nc(=O)c2c([nH]1)NC[C@H](CNc1ccc(C(=O)N[C@@H](CCC(=O)O)C(=O)O)cc1)N2C=O", "note": "[calcium levofolinate, (6S)-N-[4-[[(2-amino-5-formyl-1,4,5,6,7,8-hexahydro-4-oxo-6-pteridinyl)methyl]amino]benzoyl]-L-glutamic acid]", "values": [
      {"measurement": "remaining calcium levofolinate content compared with the initial value (100)", "setting": "[1]; pH value 5.0, 60° C., 1 week", "result": 91.5},
      {"measurement": "remaining calcium levofolinate content compared with the initial value (100)", "setting": "[1]; pH value 5.0, 60° C., 2 weeks", "result": 87.5},
      {"measurement": "remaining calcium levofolinate content compared with the initial value (100)", "setting": "[1]; pH value 5.0, 60° C., 3 weeks", "result": 86.0},
      {"measurement": "calcium levofolinate content, Initial value (100)", "setting": "[1]; pH value 5.0, Initial value", "result": 100},
      {"measurement": "remaining calcium levofolinate content compared with the initial value (100)", "setting": "[1]; pH value 6.0, 60° C., 1 week", "result": 95.8},
      {"measurement": "remaining calcium levofolinate content compared with the initial value (100)", "setting": "[1]; pH value 6.0, 60° C., 2 weeks", "result": 94.1},
      {"measurement": "remaining calcium levofolinate content compared with the initial value (100)", "setting": "[1]; pH value 6.0, 60° C., 3 weeks", "result": 92.8},
      {"measurement": "calcium levofolinate content, Initial value (100)", "setting": "[1]; pH value 6.0, Initial value", "result": 100},
      {"measurement": "remaining calcium levofolinate content compared with the initial value (100)", "setting": "[1]; pH value 7.0, 60° C., 1 week", "result": 96.3},
      {"measurement": "remaining calcium levofolinate content compared with the initial value (100)", "setting": "[1]; pH value 7.0, 60° C., 2 weeks", "result": 93.4},
      {"measurement": "remaining calcium levofolinate content compared with the initial value (100)", "setting": "[1]; pH value 7.0, 60° C., 3 weeks", "result": 92.5},
      {"measurement": "calcium levofolinate content, Initial value (100)", "setting": "[1]; pH value 7.0, Initial value", "result": 100},
      {"measurement": "remaining calcium levofolinate content compared with the initial value (100)", "setting": "[1]; pH value 8.0, 60° C., 1 week", "result": 94.4},
      {"measurement": "remaining calcium levofolinate content compared with the initial value (100)", "setting": "[1]; pH value 8.0, 60° C., 2 weeks", "result": 89.2},
      {"measurement": "remaining calcium levofolinate content compared with the initial value (100)", "setting": "[1]; pH value 8.0, 60° C., 3 weeks", "result": 87.0},
      {"measurement": "calcium levofolinate content, Initial value (100)", "setting": "[1]; pH value 8.0, Initial value", "result": 100},
      {"measurement": "remaining calcium levofolinate content compared with the initial value (100)", "setting": "[1]; pH value 9.0, 60° C., 1 week", "result": 95.7},
      {"measurement": "remaining calcium levofolinate content compared with the initial value (100)", "setting": "[1]; pH value 9.0, 60° C., 2 weeks", "result": 89.7},
      {"measurement": "remaining calcium levofolinate content compared with the initial value (100)", "setting": "[1]; pH value 9.0, 60° C., 3 weeks", "result": 85.3},
      {"measurement": "calcium levofolinate content, Initial value (100)", "setting": "[1]; pH value 9.0, Initial value", "result": 100},
      {"measurement": "content of calcium levofolinate during storage", "setting": "[2]", "result": "≥ 90", "unit": "%"},
      {"measurement": "transmittance of the aqueous solution during storage", "setting": "[3]", "result": "lowers gradually"}
    ]}
  ]
}
